# According to patent publication US8614214B2, “Pyrazole amide compounds and uses thereof” (Sinochem Corporation, priority 2010, dated 2013):
# Read-outs that look alike come from different tables or passages of the source.
# Tests used:
# corn rust = test: Greenhouse pot seedling assay, corn rust; assay type: in vivo; details: for Control (%): comparative test, Table 20; for control of corn rust / pest or weed control at 400 ppm: 400 ppm; for pest or weed control at 400 ppm: Zea mays, 192 h, Table 21, read-out: Biological activity in greenhouse, corn rust
# cucumber downy mildew [1] = test: Greenhouse pot seedling assay, cucumber downy mildew; assay type: in vivo; details: for Control (%): comparative test, Table 18; for pest or weed control at 400 ppm: Cucumis sativus, 120 h, Table 21, read-out: Biological activity in greenhouse, cucumber downy mildew
# wheat powdery mildew = test: Greenhouse pot seedling assay, wheat powdery mildew; assay type: in vivo; details: for control of wheat powdery mildew: 400 ppm; for pest or weed control at 400 ppm: Triticum aestivum, 192 h, Table 21, read-out: Biological activity in greenhouse, wheat powdery mildew
# rice blast [2] = assay type: cell-based; details: 25 ppm
# cucumber downy mildew [3] = test: Field trial against cucumber downy mildew; assay type: in vivo; details: for Control (%) average: average of 3 replicates; for Control (%) I: replicate I; for Control (%) II: replicate II; for Control (%) III: replicate III
# Experimental: The trial was carried out in a greenhouse in July 2011 in […] district, Shanxi Province. Before the treatment, the cucumber plants were at the beginning of infection. The trial method was based on the National Standard of the People's Republic of China-“Pesticide-Guidelines for The Field Efficacy Trials”. […] The Area of plot was 15 m^2, random arrangement and 3 times replication. The volume was about 600 L/hm^2, and water was as the control. Efficacy calculation method is as follows: [formula] [formula]
# cucumber downy mildew [4] = test: Persistence comparative test against cucumber downy mildew (greenhouse); assay type: in vivo
# rice blast [5] = assay type: in vivo; details: 600 ppm, field
compound,measurement,setting,value
"Fc1ccc([C@]2(Cn3cncn3)O[C@H]2c2ccccc2Cl)cc1 (racemic) [epoxiconazole, reference compound]",Control (%),corn rust; 3.13 ppm,40%
same,Control (%),corn rust; 6.25 ppm,75%
same,Control (%),corn rust; 12.5 ppm,90%
same,Control (%),corn rust; 25 ppm,95%
same,Control (%),corn rust; 50 ppm,100%
same,Control (%),corn rust; 100 ppm,100%
"C[C@@]1(c2ccc(Oc3ccccc3)cc2)OC(=O)N(Nc2ccccc2)C1=O (racemic) [famoxadone, reference compound]",Control (%),cucumber downy mildew [1]; 6.25 ppm,14%
same,Control (%),cucumber downy mildew [1]; 12.5 ppm,22%
same,Control (%),cucumber downy mildew [1]; 25 ppm,51%
same,Control (%),cucumber downy mildew [1]; 50 ppm,74%
same,Control (%),cucumber downy mildew [1]; 100 ppm,81%
CNC(=O)c1ccccc1NC(=O)COc1ccc(CNC(=O)c2cc(C)nn2C)cc1 [Compound 2],control of cucumber downy mildew,"cucumber downy mildew [1]; 25 ppm, greenhouse",75%
same,control of cucumber downy mildew,"cucumber downy mildew [1]; 50 ppm, greenhouse",100%
same,control of cucumber downy mildew,"cucumber downy mildew [1]; 400 ppm, greenhouse",100%
same,control of corn rust,corn rust; greenhouse,100%
same,control of wheat powdery mildew,wheat powdery mildew; greenhouse,100%
same,inhibition ratio on spore germination of rice blast,rice blast [2],100%
CCc1cc(C(=O)NCc2ccc(OCC(=O)Nc3ccccc3C(=O)NC)cc2)n(C)n1 [Compound 3],control of cucumber downy mildew,cucumber downy mildew [1]; 25 ppm,95%
same,control of cucumber downy mildew,cucumber downy mildew [1]; 50 ppm,100%
same,control of cucumber downy mildew,cucumber downy mildew [1]; 400 ppm,100%
same,control of corn rust,corn rust,100%
same,control of wheat powdery mildew,wheat powdery mildew,100%
same,inhibition ratio on spore germination of rice blast,rice blast [2],100%
CCc1nn(C)c(C(=O)NCc2ccc(OCC(=O)Nc3ccccc3C(=O)NC)cc2)c1Cl [Compound 16],control of cucumber downy mildew,"cucumber downy mildew [1]; 25 ppm, greenhouse",100%
same,control of cucumber downy mildew,"cucumber downy mildew [1]; 50 ppm, greenhouse",100%
same,control of cucumber downy mildew,"cucumber downy mildew [1]; 400 ppm, greenhouse",100%
same,control of corn rust,corn rust; greenhouse,100%
same,control of wheat powdery mildew,wheat powdery mildew; greenhouse,100%
same,inhibition ratio on spore germination of rice blast,rice blast [2]; in vitro,100%
same,melting point,,160 to 161 °C
CCCc1nn(C)c(C(=O)NCc2ccc(OCC(=O)Nc3ccccc3C(=O)NC)cc2)c1Cl [Compound 17],control of corn rust,corn rust; greenhouse,100%
CCc1nn(C)c(C(=O)NCc2ccc(O[C@H](C)C(=O)Nc3ccccc3C(=O)NC)cc2)c1Cl [Compound 66],control of cucumber downy mildew,"cucumber downy mildew [1]; 400 ppm, greenhouse",100%
same,control of corn rust,corn rust; greenhouse,100%
CCc1nn(C)c(C(=O)NCc2ccc(O[C@@H](C)C(=O)Nc3ccccc3C(=O)NC)cc2)c1Cl [Compound 69],control of cucumber downy mildew,"cucumber downy mildew [1]; 400 ppm, greenhouse",100%
same,control of corn rust,corn rust; greenhouse,100%
CCOC(=O)c1cccc(C)c1NC(=O)COc1ccc(CNC(=O)c2c(Cl)c(C)nn2C)cc1 [Compound 94],control of corn rust,corn rust; greenhouse,100%
CCOC(=O)c1ccccc1NC(=O)COc1ccc(CNC(=O)c2c(Cl)c(C)nn2C)cc1 [Compound 95],control of corn rust,corn rust; greenhouse,100%
same,inhibition ratio on spore germination of rice blast,rice blast [2],100%
CCOC(=O)c1ccccc1NC(=O)COc1ccc(CNC(=O)c2c(Cl)c(CC)nn2C)cc1 [Compound 99],control of corn rust,corn rust; greenhouse,100%
Cc1nn(C)c(C(=O)NCc2ccc(OCC(=O)Nc3ccccc3C(N)=O)cc2)c1Cl [Compound 156],control of corn rust,corn rust; greenhouse,100%
CCNC(=O)c1cccc(C)c1NC(=O)COc1ccc(CNC(=O)c2cc(C)nn2C)cc1 [Compound 177],control of cucumber downy mildew,"cucumber downy mildew [1]; 25 ppm, greenhouse",100%
same,control of cucumber downy mildew,"cucumber downy mildew [1]; 50 ppm, greenhouse",100%
same,control of cucumber downy mildew,"cucumber downy mildew [1]; 400 ppm, greenhouse",100%
same,control of corn rust,corn rust; greenhouse,100%
same,control of wheat powdery mildew,wheat powdery mildew; greenhouse,100%
same,inhibition ratio on spore germination of rice blast,rice blast [2],100%
"CNC(=O)c1ccccc1NC(=O)COc1ccc(CN)cc1 [II-1, 2-(2-(4-(aminomethyl)phenoxy)acetamido)-N-methylbenzamide]",pest or weed control at 400 ppm,cucumber downy mildew [1]; 400 ppm,0%
same,pest or weed control at 400 ppm,corn rust,0%
same,pest or weed control at 400 ppm,wheat powdery mildew,100%
same,melting point,,109 to 110 °C
"CNC(=O)c1ccccc1NC(=O)CCl [VI-1, 2-(2-chloroacetamido)-N-methylbenzamide]",pest or weed control at 400 ppm,cucumber downy mildew [1]; 400 ppm,0%
same,pest or weed control at 400 ppm,corn rust,0%
same,pest or weed control at 400 ppm,wheat powdery mildew,0%
same,melting point,,155 to 157 °C
COC(=O)c1ccccc1NC(=O)CCl [VI-20],pest or weed control at 400 ppm,cucumber downy mildew [1]; 400 ppm,0%
same,pest or weed control at 400 ppm,corn rust,0%
same,pest or weed control at 400 ppm,wheat powdery mildew,0%
same,melting point,,92 to 94 °C
CNC(=O)c1ccccc1NC(=O)C(C)Cl (centres unmarked) [VI-54],pest or weed control at 400 ppm,cucumber downy mildew [1]; 400 ppm,30%
same,pest or weed control at 400 ppm,corn rust,0%
same,pest or weed control at 400 ppm,wheat powdery mildew,0%
same,melting point,,121 to 122 °C
COC(=O)c1ccccc1NC(=O)C(C)Cl (centres unmarked) [VI-56],pest or weed control at 400 ppm,cucumber downy mildew [1]; 400 ppm,75%
same,pest or weed control at 400 ppm,corn rust,30%
same,pest or weed control at 400 ppm,wheat powdery mildew,0%
same,melting point,,63 to 65 °C
Cc1nn(C)c(C(=O)NCc2ccc(O)cc2)c1Cl [VIII-1],pest or weed control at 400 ppm,cucumber downy mildew [1]; 400 ppm,95%
same,pest or weed control at 400 ppm,corn rust,50%
same,pest or weed control at 400 ppm,wheat powdery mildew,0%
Cc1nn(C)c(C(=O)NCCc2ccc(O)cc2)c1Cl [VIII-138],pest or weed control at 400 ppm,cucumber downy mildew [1]; 400 ppm,0%
same,pest or weed control at 400 ppm,corn rust,0%
same,pest or weed control at 400 ppm,wheat powdery mildew,0%
CCc1nn(C)c(C(=O)NCCc2ccc(O)cc2)c1Cl [VIII-139],pest or weed control at 400 ppm,cucumber downy mildew [1]; 400 ppm,0%
same,pest or weed control at 400 ppm,corn rust,0%
same,pest or weed control at 400 ppm,wheat powdery mildew,0%
"N#Cc1c(Cl)c(Cl)c(Cl)c(C#N)c1Cl [chlorothalonil, reference compound]",Control (%) average,cucumber downy mildew [3]; 800 ppm,74%
same,Control (%) I,cucumber downy mildew [3]; 800 ppm,68%
same,Control (%) II,cucumber downy mildew [3]; 800 ppm,73%
same,Control (%) III,cucumber downy mildew [3]; 800 ppm,81%
"COc1ccc(C(=CC(=O)N2CCOCC2)c2ccc(Cl)cc2)cc1OC [dimethomorph, reference compound]",Control (%),cucumber downy mildew [1]; 6.25 ppm,29%
same,Control (%),cucumber downy mildew [1]; 12.5 ppm,74%
same,Control (%),cucumber downy mildew [1]; 25 ppm,85%
same,Control (%),cucumber downy mildew [1]; 50 ppm,88%
same,Control (%),cucumber downy mildew [1]; 100 ppm,100%
same,Control (%) average,cucumber downy mildew [3]; 200 ppm,53%
same,Control (%) I,cucumber downy mildew [3]; 200 ppm,44%
same,Control (%) II,cucumber downy mildew [3]; 200 ppm,52%
same,Control (%) III,cucumber downy mildew [3]; 200 ppm,63%
same,Control (%),"cucumber downy mildew [4]; 25 ppm, inoculation 3 days after treatment",0%
same,Control (%),"cucumber downy mildew [4]; 25 ppm, inoculation 7 days after treatment",0%
same,Control (%),"cucumber downy mildew [4]; 50 ppm, inoculation 3 days after treatment",30%
same,Control (%),"cucumber downy mildew [4]; 50 ppm, inoculation 7 days after treatment",0%
same,Control (%),"cucumber downy mildew [4]; 100 ppm, inoculation 3 days after treatment",44%
same,Control (%),"cucumber downy mildew [4]; 100 ppm, inoculation 7 days after treatment",0%
same,Control (%),"cucumber downy mildew [4]; 200 ppm, inoculation 3 days after treatment",74%
same,Control (%),"cucumber downy mildew [4]; 200 ppm, inoculation 7 days after treatment",44%
same,Control (%),"cucumber downy mildew [4]; 400 ppm, inoculation 3 days after treatment",100%
same,Control (%),"cucumber downy mildew [4]; 400 ppm, inoculation 7 days after treatment",74%
"O=[N+]([O-])c1cc(C(F)(F)F)c(Cl)c([N+](=O)[O-])c1Nc1ncc(C(F)(F)F)cc1Cl [fluazinam, reference compound]",Control (%) average,rice blast [5]; average of 3 replicates,75%
same,Control (%) I,rice blast [5]; replicate I,70%
same,Control (%) II,rice blast [5]; replicate II,75%
same,Control (%) III,rice blast [5]; replicate III,80%
"COCC(=O)N(c1c(C)cccc1C)C(C)C(=O)OC (centres unmarked) [metalaxyl, reference compound]",Control (%),cucumber downy mildew [1]; 6.25 ppm,0%
same,Control (%),cucumber downy mildew [1]; 12.5 ppm,7%
same,Control (%),cucumber downy mildew [1]; 25 ppm,22%
same,Control (%),cucumber downy mildew [1]; 50 ppm,29%
same,Control (%),cucumber downy mildew [1]; 100 ppm,59%
